pIC50, pKd, pKi: −log10 of the molar value.
Experiments:
CcreOBP6 = test: Fluorescence competitive binding assay with 1-NPN probe, CcreOBP6; parameters: species or system Cacia cretifera thibetana
Description: (§1) The binding affinities of both CcreOBP6 and CcreOBP10 proteins with 20 odor volatiles were determined. The CcreOBP6 and CcreOBP10 proteins from prokaryotic cells were purified by Ni affinity chromatography. Then, 50 mM Tris-HCL buffer solution (pH = 7.4) was prepared, and N-phenyl-1-naphthylamine (1-NPN) was used as a fluorescent probe. For chromatography, the methanol was used as a solvent for fluorescent probe 1-NPN as well as for 20 odor standard volatile samples dissolved in solvent to make a 1 mM solution. These samples were added to a 96 Micro Well TM microtiter plate (NunclonTM) while the multifunctional microplate reader (VARIOSKAN FLASH) excitation light wavelength was set to 337 nm. The scanning wavelength was between 370 to 550 nm, and both excitation and emission slits were set to 5 nm. To determine the CcreOBP6 and CcreOBP10 protein binding constant with the fluorescent probe 1-NPN, a solution was prepared with CcreOBP6 and CcreOBP10 proteins in Tris-HCL (pH = 7.4) buffer with a 2 μM final concentration. The successive concentrations of 2, 4, 6, 8, 12, 16, and 20 μM of 1-NPN were added, and the fluorescence intensity was recorded at the maximum emission wavelength (Em = 410 nm) for each time, and the experiment was repeated three times. The formula for the protein and odor standard dissociation constant was calculated by: Ki = [IC 50]/(1 + [1-NPN]/K 1-NPN) where IC 50 denotes the odor standard concentrations as the fluorescence intensity value was decreased by half, [1-NPN] is the unbound 1-NPN prob concentration, and K 1-NPN is the protein and 1-NPN probe binding constant.

CcreOBP10 = test: Fluorescence competitive binding assay with 1-NPN probe, CcreOBP10; parameters: species or system Cacia cretifera thibetana
Description: as §1

males and females = test system: males and females; parameters: method as in PMID 23564737; conditions: olfactometer, lower dose; cited from earlier work
[1] = competitive displacement of 1-NPN
[2] = 2 μM protein, Tris-HCl pH 7.4, Em 410 nm, read-out: dissociation constant with fluorescent probe 1-NPN
[3] = Ki = [IC50]/(1 + [1-NPN]/K1-NPN)
[4] = odor concentration at which 1-NPN fluorescence intensity is halved

Row | binding with CcreOBP6 (CcreOBP6; [1]) | relative fluorescence value (CcreOBP10; [1]) | Compound | binding with CcreOBP10 (CcreOBP10; [1]) | other results
1 | did not show any binding |  | C1=CCCCC=CCCC1 [1,6-cyclodecadiene] |  | 
2 |  |  | c1ccc(Nc2cccc3ccccc23)cc1 [1-NPN, N-phenyl-1-naphthylamine, reference compound] |  | pKd (CcreOBP6; [2]): 5.15; pKd (CcreOBP10; [2]): 5.21
3 |  | below 50% | C=C1CC/C=C(\C)CC[C@@H]2[C@@H]1CC2(C)C [1-caryophyllene] |  | 
4 |  | below 50% | C=CC(=C)CCC=C(C)C [Myrcene] |  | pKi (CcreOBP10; [3]): 4.86; pIC50 (CcreOBP10; [4]): 4.75
5 | did not show any binding |  | C=C1CC[C@H]2O[C@]2(C)CC[C@@H]2[C@@H]1CC2(C)C [caryophyllene oxide] |  | 
6 |  |  | CC(C)COC(=O)c1ccccc1C(=O)OCC(C)C [di-isobutyl phthalate] |  | drop in the relative fluorescence value (CcreOBP10; [1]): 6.4%
7 |  |  | CC12CCC(CC1)C(C)(C)O2 [eucalyptol] |  | relative fluorescence value (CcreOBP6; [1]): 10.84%
8 | did not show any binding |  | CCCCCC=O [n-hexanal] | showed binding | 

Row | Compound | binding with CcreOBP6 (CcreOBP6; [1]) | relative fluorescence value (CcreOBP10; [1]) | binding with CcreOBP10 (CcreOBP10; [1]) | other results
9 | CCC/C=C/C=O [trans-2-hexenal] | strong binding affinities | below 50% | strong binding affinities | pKi (CcreOBP6; [3]): 4.89; pIC50 (CcreOBP6; [4]): 4.79; repellent activity (males and females): good repellent activity
10 | phytol | did not show any binding |  | showed binding | 

From article PMC8469897, “Transcriptomic Characterization of Odorant Binding Proteins in Cacia cretifera thibetana and Their Association with Different Host Emitted Volatiles” (Insects, 2021)
